One assay addresses T1, CRF2R (Homo sapiens, UniProt Q13324).
T1 sequence (Q13324 1-411): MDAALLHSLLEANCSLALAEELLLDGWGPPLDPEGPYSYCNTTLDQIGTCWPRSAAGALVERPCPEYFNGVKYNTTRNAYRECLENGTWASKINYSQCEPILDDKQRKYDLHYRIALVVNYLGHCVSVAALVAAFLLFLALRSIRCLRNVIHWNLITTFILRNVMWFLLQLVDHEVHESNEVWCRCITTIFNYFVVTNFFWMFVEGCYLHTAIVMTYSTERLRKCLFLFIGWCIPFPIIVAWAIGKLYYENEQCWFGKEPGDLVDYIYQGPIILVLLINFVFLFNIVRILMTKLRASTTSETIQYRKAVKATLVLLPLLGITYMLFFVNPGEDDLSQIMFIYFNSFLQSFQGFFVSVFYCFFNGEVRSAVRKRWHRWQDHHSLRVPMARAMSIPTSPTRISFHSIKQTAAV
The assay can be described thus: CRF2R agonist activation (EC50 / Emax), called comparative CRF binding. The assay is classed as cell-based. Conditions: read-out: CRF2R Emax. An excerpt: (§1) The pharmacological activity and selectivity of the peptides of present invention can be determined using published test procedures. See, e.g, U.S. patent application Ser. No. 09/799,978 (now issued U.S. Pat. No. 6,670,140). Because CRF2R and CRF1R are homologous proteins, it is expected that a certain proportion of agonists for CRF2R will also function as agonists of CRF1R. As discussed above, activation of CRF1R induces activation of the HPA axis since increased corticosteroid production leads to skeletal muscle atrophy. In most cases in which an increase in muscle mass or function is desired, it is not desirable to activate the HPA axis.
(§2) Cell-based assays include the steps of contacting cells which express CRF1R or CRF2R with a peptide of the present invention or control and measuring activation of the CRFR by measuring the expression or activity of components of the CRFR signal transduction pathways.
(§3) For example, after contact with a peptide of the present invention, lysates of the cells can be prepared and assayed for induction of cAMP. cAMP is induced in response to Gαs activation. Because Gαs is activated by receptors other than CRFR and because a test peptide may be exerting its effect through CRFRs or by another mechanism, two control comparisons are relevant for determining whether the peptide increases levels of cAMP via activation of a CRFR. One control compares the cAMP level of cells contacted with the peptide and the cAMP level of cells contacted with a control compound (i.e., the vehicle in which the peptide is dissolved).
(§4) In one example, cAMP induction is measured with the use of DNA constructs containing the cAMP responsive element linked to any of a variety of reporter genes can be introduced into cells expressing CRFRs. Such reporter genes include, but are not limited to, chloramphenicol acetyltransferase (CAT), luciferase, glucuronide synthetase, growth hormone, fluorescent proteins (e.g., Green Fluorescent Protein), or alkaline phosphatase. Following exposure of the cells to the peptide, the level of reporter gene expression can be quantitated to determine the peptide's ability to increase cAMP levels and thus determine the peptide's ability to activate the CRFR.
(§5) In addition to using cells expressing full length CRFRs, cells can be engineered which express CRFRs containing the ligand binding domain of the receptor coupled to, or physically modified to contain, reporter elements or to interact with signaling proteins. For example, a wild type CRFR or CRFR fragment can be fused to a G-protein resulting in activation of the fused G-protein upon agonist binding to the CRFR portion of the fusion protein. […] In addition, alternative pathways for induction of the CRE reporter could be eliminated to reduce basal levels.

For a further assay, the target named is T2, CRF1R (Homo sapiens, UniProt P34998).
T2 sequence (P34998 24-415): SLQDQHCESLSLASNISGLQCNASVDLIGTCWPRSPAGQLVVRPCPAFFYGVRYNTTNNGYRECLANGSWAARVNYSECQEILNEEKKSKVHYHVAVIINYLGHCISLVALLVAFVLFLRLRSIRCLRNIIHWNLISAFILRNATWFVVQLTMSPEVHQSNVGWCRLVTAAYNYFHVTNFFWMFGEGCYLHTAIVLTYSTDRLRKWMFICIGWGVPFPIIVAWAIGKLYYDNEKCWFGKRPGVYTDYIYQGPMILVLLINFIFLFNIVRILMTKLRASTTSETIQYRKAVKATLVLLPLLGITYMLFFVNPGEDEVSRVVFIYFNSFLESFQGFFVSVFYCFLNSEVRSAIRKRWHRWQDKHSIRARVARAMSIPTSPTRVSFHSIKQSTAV
Description: CRF1R agonist activation (EC50 / Emax), called comparative CRF binding. The assay is classed as cell-based. Conditions: read-out: CRF1R Emax.
Source text: as §1, §2, §3, §4, §5

Peptide text beside a SMILES is read from it.

The Emax is the greatest response seen or fitted, relative to the assay's reference. For `CC[C@H](C)[C@H](N)C(=O)N[C@H](C(=O)N[C@@H](CC(C)C)C(=O)N[C@@H](CO)C(=O)N[C@@H](CC(C)C)C(=O)N[C@@H](CC(=O)O)C(=O)N[C@H](C(=O)N1CCC[C@H]1C(=O)NCC(=O)N1CCC[C@H]1C(=O)N[C@@H](CC(C)C)C(=O)N[C@@H](CC(C)C)C(=O)N[C@@H](CCC(N)=O)C(=O)N[C@H](C(=O)N[C@@H](CC(C)C)C(=O)N[C@@H](CC(C)C)C(=O)N[C@@H](CCC(=O)O)C(=O)N[C@@H](CCC(N)=O)C(=O)N[C@H](C(=O)N[C@@H](CCCCN)C(=O)N[C@@H](CCC(N)=O)C(=O)N[C@@H](CCC(=O)O)C(=O)N[C@@H](C)C(=O)N[C@@H](C)C(=O)N[C@@H](CCCNC(=N)N)C(=O)N[C@@H](CCC(=O)O)C(=O)N[C@@H](CCC(N)=O)C(=O)N[C@@H](C)C(=O)N[C@H](C(=O)N[C@H](C(=O)N[C@@H](CC(N)=O)C(=O)N[C@@H](C)C(=O)N[C@@H](CCCNC(=N)N)C(=O)N[C@H](C(=O)N[C@@H](CC(C)C)C(=O)N[C@@H](C)C(=O)N[C@@H](CCCNC(=N)N)C(=O)N[C@H](C(N)=O)C(C)C)[C@@H](C)CC)[C@@H](C)O)[C@@H](C)O)[C@@H](C)O)[C@@H](C)CC)C(C)C)C(C)C` [compound 5] (H-IVLSLDVPGPLLQILLEQTKQEAAREQATTNARILARV-NH2), the Emax at CRF2R was 12%; on CRF1R it was 9%.
As to `CC[C@H](C)[C@H](N)C(=O)N[C@H](C(=O)N[C@@H](CC(C)C)C(=O)N[C@@H](CO)C(=O)N[C@@H](CC(C)C)C(=O)N[C@@H](CC(=O)O)C(=O)N[C@H](C(=O)N1CCC[C@H]1C(=O)N[C@H](C(=O)NCC(=O)N[C@@H](CC(C)C)C(=O)N[C@@H](CC(C)C)C(=O)N[C@@H](CCC(N)=O)C(=O)N[C@H](C(=O)N[C@@H](CC(C)C)C(=O)N[C@@H](CC(C)C)C(=O)N[C@@H](CCC(=O)O)C(=O)N[C@@H](CCC(N)=O)C(=O)N[C@@H](C)C(=O)N[C@@H](CCCNC(=N)N)C(=O)N[C@@H](C)C(=O)N[C@@H](CCCNC(=N)N)C(=O)N[C@@H](C)C(=O)N[C@@H](C)C(=O)N[C@@H](CCCNC(=N)N)C(=O)N[C@@H](CCC(=O)O)C(=O)N[C@@H](CCC(N)=O)C(=O)N[C@@H](C)C(=O)N[C@H](C(=O)N[C@H](C(=O)N[C@@H](CCC(N)=O)C(=O)N[C@@H](C)C(=O)N[C@@H](CCCNC(=N)N)C(=O)N[C@H](C(=O)N[C@@H](CC(C)C)C(=O)N[C@@H](C)C(=O)N[C@@H](CCCNC(=N)N)C(=O)N[C@H](C(N)=O)C(C)C)[C@@H](C)CC)[C@@H](C)O)[C@@H](C)O)[C@@H](C)CC)[C@@H](C)CC)C(C)C)C(C)C` [compound 9] (H-IVLSLDVPIGLLQILLEQARARAAREQATTQARILARV-NH2), the Emax at CRF2R amounted to 34%; on CRF1R, 10%.
`CC[C@H](C)[C@H](NC(=O)[C@H](CC(=O)O)NC(=O)[C@H](CC(C)C)NC(=O)[C@H](CC(C)C)NC(=O)[C@H](CCCCN)NC(=O)[C@H](CCCNC(=N)N)NC(=O)[C@H](CC(N)=O)NC(=O)[C@H](CO)NC(=O)[C@H](Cc1c[nH]cn1)NC(=O)[C@H](C)NC(=O)[C@H](CCC(N)=O)NC(=O)[C@H](CCC(N)=O)NC(=O)[C@H](C)NC(=O)[C@H](CC(C)C)NC(=O)[C@H](CCC(N)=O)NC(=O)[C@H](CC(=O)O)NC(=O)[C@H](C)NC(=O)[C@H](CCCCN)NC(=O)[C@@H](NC(=O)[C@H](CCSC)NC(=O)[C@H](CCC(=O)O)NC(=O)[C@H](CC(C)C)NC(=O)[C@@H](NC(=O)[C@H](CCC(=O)O)NC(=O)[C@H](CCCNC(=N)N)NC(=O)[C@H](CC(C)C)NC(=O)[C@H](CC(C)C)NC(=O)[C@H](Cc1c[nH]cn1)NC(=O)[C@H](Cc1ccccc1)NC(=O)[C@@H]1CCCN1C(=O)[C@H](CC(C)C)NC(=O)[C@H](CC(=O)O)NC(=O)[C@H](CC(C)C)NC(=O)[C@H](CO)NC(=O)[C@@H](NC(=O)[C@@H]1CCCN1C(=O)[C@@H]1CCCN1C(=O)[C@H](CCC(=O)O)NC(=O)[C@H](CCC(N)=O)NC(=O)[C@@H](N)CO)[C@@H](C)CC)C(C)C)[C@@H](C)O)C(=O)N[C@@H](C)C(N)=O` [compound 104]: the figures for the maximal effect (Emax) at CRF2R and at CRF1R were 4.5% and 11.1%, respectively.
The corresponding values for `CC[C@H](C)[C@H](N)C(=O)N[C@H](C(=O)N[C@@H](CC(C)C)C(=O)N[C@@H](CO)C(=O)N[C@@H](CC(C)C)C(=O)N[C@@H](CC(=O)O)C(=O)N[C@H](C(=O)N1CCC[C@H]1C(=O)N[C@H](C(=O)NCC(=O)N[C@@H](CC(C)C)C(=O)N[C@@H](CC(C)C)C(=O)N[C@@H](CCC(N)=O)C(=O)N[C@H](C(=O)N[C@@H](CC(C)C)C(=O)N[C@@H](CC(C)C)C(=O)N[C@@H](CCC(=O)O)C(=O)N[C@@H](CCC(N)=O)C(=O)N[C@H](C(=O)N[C@@H](CCCCN)C(=O)N[C@@H](C)C(=O)N[C@@H](CC(=O)O)C(=O)N[C@@H](C)C(=O)N[C@@H](C)C(=O)N[C@@H](CCCNC(=N)N)C(=O)N[C@@H](CCC(=O)O)C(=O)N[C@@H](CCC(N)=O)C(=O)N[C@@H](C)C(=O)N[C@H](C(=O)N[C@H](C(=O)N[C@@H](CC(N)=O)C(=O)N[C@@H](C)C(=O)N[C@@H](CCCNC(=N)N)C(=O)N[C@H](C(=O)N[C@@H](CC(C)C)C(=O)N[C@@H](C)C(=O)N[C@@H](CCCNC(=N)N)C(=O)N[C@H](C(N)=O)C(C)C)[C@@H](C)CC)[C@@H](C)O)[C@@H](C)O)[C@@H](C)O)[C@@H](C)CC)[C@@H](C)CC)C(C)C)C(C)C` [compound 108] (H-IVLSLDVPIGLLQILLEQTKADAAREQATTNARILARV-NH2; N-terminus assumed) are 97% and 3%.
Regarding `CC[C@H](C)[C@H](N)C(=O)N[C@H](C(=O)N[C@@H](CC(C)C)C(=O)N[C@@H](CO)C(=O)N[C@@H](CC(C)C)C(=O)N[C@@H](CC(=O)O)C(=O)N[C@H](C(=O)N1CCC[C@H]1C(=O)N[C@H](C(=O)NCC(=O)N[C@@H](CC(C)C)C(=O)N[C@@H](CC(C)C)C(=O)N[C@@H](CCC(N)=O)C(=O)N[C@H](C(=O)N[C@@H](CC(C)C)C(=O)N[C@@H](CC(C)C)C(=O)N[C@@H](CCC(=O)O)C(=O)N[C@@H](CCC(N)=O)C(=O)N[C@@H](C)C(=O)N[C@@H](CCCCN)C(=O)N[C@@H](C)C(=O)N[C@@H](CCCNC(=N)N)C(=O)N[C@@H](C)C(=O)N[C@@H](C)C(=O)N[C@@H](CCCNC(=N)N)C(=O)N[C@@H](CCC(=O)O)C(=O)N[C@@H](CCC(N)=O)C(=O)N[C@@H](C)C(=O)N[C@H](C(=O)N[C@H](C(=O)N[C@@H](CC(N)=O)C(=O)N[C@@H](C)C(=O)N[C@@H](CCCNC(=N)N)C(=O)N[C@H](C(=O)N[C@@H](CC(C)C)C(=O)N[C@@H](C)C(=O)N[C@@H](CCCNC(=N)N)C(=O)N[C@H](C(N)=O)C(C)C)[C@@H](C)CC)[C@@H](C)O)[C@@H](C)O)[C@@H](C)CC)[C@@H](C)CC)C(C)C)C(C)C` [compound 109] (H-IVLSLDVPIGLLQILLEQAKARAAREQATTNARILARV-NH2; N-terminus assumed), the maximum response (Emax) was 91.7% on CRF2R and 6.7% on CRF1R.

The values are drawn from patent publication US6936585B2, “Corticotropin releasing factor 2 receptor agonists” (priority 2002, dated 2005).
